Here are results for eleven compounds from PubChem BioAssay (NCI).

Where “and” joins values, the source holds several entries; their conditions need not be identical. Equal values may be shown once.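 Method: 48-hour compound exposure of cells in 96-well plates, five concentrations, linear interpolation of endpoints. The concentration for 50% growth inhibition is given as GI50. TGI marks complete inhibition of growth.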

Test systems include CAKI-1 renal; SK-MEL-2 melanoma; MALME-3M melanoma; BT-549 breast; MDA-MB-231 breast; OVCAR-8 ovarian; OVCAR-5 ovarian; ACHN renal; DMS 114 small cell lung.
Common to all, as to test: NCI tumour cell line growth inhibition, 48 h

Take `CC(C)(C)NC(=O)[C@H]1CC[C@H]2[C@@H]3CC[C@H]4NC(=O)C=C[C@]4(C)[C@H]3CC[C@]12C`: the GI50 in the experiment with CAKI-1 renal was 77.9 µM and > 100 µM; in the experiment on MALME-3M melanoma it was 74.5 µM and > 100 µM; in the experiment with BT-549 breast, 81.9 µM and > 100 µM; in the experiment on MDA-MB-231 breast, > 100 µM; in the experiment on OVCAR-8 ovarian, > 100 µM; in the experiment on OVCAR-5 ovarian it was > 100 µM. Also, the GI50 with ACHN renal is > 100 µM. In addition, the TGI in the experiment with CAKI-1 renal, in the experiment with SK-MEL-2 melanoma, with MALME-3M melanoma, in the experiment on BT-549 breast, in the experiment with MDA-MB-231 breast and with OVCAR-8 ovarian was > 100 µM in each case. The TGI with OVCAR-5 ovarian and in the experiment on ACHN renal was > 100 µM throughout.
For `Cc1ccc(/C=C/c2c(C(=O)/C=C/c3ccc(Cl)cc3)c(C)nc3ccccc23)cc1`, the GI50 was 1.27 µM in the experiment with CAKI-1 renal; 2.01 µM in the experiment on SK-MEL-2 melanoma; 1.74 µM in the experiment with MALME-3M melanoma; 1.4 µM in the experiment on BT-549 breast; 1.77 µM in the experiment on MDA-MB-231 breast; 2.17 µM in the experiment on OVCAR-8 ovarian. The GI50 in the experiment on OVCAR-5 ovarian was 2.16 µM; with ACHN renal, 1.54 µM. Moreover, the TGI with CAKI-1 renal turned out to be 2.74 µM; with SK-MEL-2 melanoma, 4.96 µM; in the experiment with MALME-3M melanoma, 3.17 µM; in the experiment with BT-549 breast it was 2.93 µM; in the experiment with MDA-MB-231 breast, 3.68 µM; in the experiment with OVCAR-8 ovarian it was 6.46 µM. In addition, the values for the TGI in the experiment with OVCAR-5 ovarian and with ACHN renal were 5.86 µM and 2.88 µM, respectively.
Regarding `Cc1c(-c2ccc(O)cc2)oc(=O)c2ccc(O)cc12`, the GI50 in the experiment with CAKI-1 renal is 22.4 µM; in the experiment on SK-MEL-2 melanoma, > 100 µM; with MALME-3M melanoma it was 32.7 µM; in the experiment on BT-549 breast it was 35.6 µM; with MDA-MB-231 breast, > 100 µM; in the experiment with OVCAR-8 ovarian it was 83.8 µM. The GI50 with OVCAR-5 ovarian and with ACHN renal was > 100 µM throughout. The TGI in the experiment on CAKI-1 renal, in the experiment with SK-MEL-2 melanoma, in the experiment with MALME-3M melanoma, in the experiment on BT-549 breast, in the experiment with MDA-MB-231 breast and in the experiment on OVCAR-8 ovarian was > 100 µM throughout. The TGI in the experiment on OVCAR-5 ovarian and in the experiment on ACHN renal was > 100 µM in each case.
As for `Clc1ccc(OCc2nnc3n2N=C(c2ccc(Br)cc2)CS3)cc1`, the TGI in the experiment with DMS 114 small cell lung was 54 µM; in the experiment with SK-MEL-2 melanoma it was 66.9 µM; in the experiment with MALME-3M melanoma it was > 100 µM; with OVCAR-8 ovarian, > 100 µM; with OVCAR-5 ovarian, > 100 µM; in the experiment with ACHN renal, > 100 µM.
Consider `CN1CCN(c2ccc(NC(=O)c3cncnc3Nc3ccc(OCc4cccc(F)c4)c(Cl)c3)cc2)CC1`, for which the GI50 in the experiment on CAKI-1 renal was 1.48 µM; in the experiment with SK-MEL-2 melanoma, 3 µM; in the experiment with MALME-3M melanoma it was 0.85 µM; in the experiment on BT-549 breast it was > 50 µM; with MDA-MB-231 breast it was 0.971 µM; in the experiment on OVCAR-8 ovarian, 7.84 µM. Also, the GI50 was 1.6 µM in the experiment with OVCAR-5 ovarian and 1.34 µM in the experiment on ACHN renal. Further, the TGI was 6.01 µM in the experiment on CAKI-1 renal; 12.2 µM with SK-MEL-2 melanoma; 1.74 µM in the experiment on MALME-3M melanoma; > 50 µM in the experiment on BT-549 breast; 1.99 µM in the experiment on MDA-MB-231 breast; > 50 µM with OVCAR-8 ovarian. The TGI in the experiment with OVCAR-5 ovarian was found to be 7.29 µM; in the experiment with ACHN renal it was 3.74 µM.
For `COc1cc(/C=C/C(=O)/C=C/c2cc3ccc(Cl)cc3n(Cc3ccccc3)c2=O)ccc1O`, the GI50 in the experiment on CAKI-1 renal was 2.08 µM; in the experiment on SK-MEL-2 melanoma, 1.92 µM; in the experiment with MALME-3M melanoma, 1.94 µM; in the experiment with BT-549 breast, 1.69 µM; in the experiment on MDA-MB-231 breast it was 2.93 µM; in the experiment with OVCAR-8 ovarian it was 0.497 µM. In addition, the GI50 with OVCAR-5 ovarian was 2.65 µM; in the experiment with ACHN renal it was 1.33 µM. Moreover, the TGI came to 4.54 µM in the experiment on CAKI-1 renal; 4.97 µM with SK-MEL-2 melanoma; 4.64 µM with MALME-3M melanoma; 4.53 µM in the experiment on BT-549 breast; 16.6 µM in the experiment on MDA-MB-231 breast; 11.7 µM in the experiment with OVCAR-8 ovarian. Moreover, the TGI is 5.78 µM in the experiment on OVCAR-5 ovarian and 2.62 µM with ACHN renal.
As to `O=C(CCl)Nc1cc(Cl)c(Cl)cc1Cl`, the TGI turned out to be 4.88 µM in the experiment with CAKI-1 renal; 3.44 µM in the experiment on SK-MEL-2 melanoma; 2.88 µM with MALME-3M melanoma; 3.53 µM with BT-549 breast; 2.9 µM with MDA-MB-231 breast; 3.1 µM in the experiment with OVCAR-8 ovarian. Moreover, the TGI in the experiment on OVCAR-5 ovarian was 3.72 µM; in the experiment with ACHN renal, 4.58 µM.
With `O=C(/C=C/C(Cl)(Cl)Cl)Nc1ccc(Cl)cc1`, the TGI is 2.02 µM with CAKI-1 renal; 18.1 µM with SK-MEL-2 melanoma; 18.9 µM with MALME-3M melanoma; 31.1 µM in the experiment on BT-549 breast; 6.15 µM in the experiment on MDA-MB-231 breast; > 77.6 µM in the experiment with OVCAR-8 ovarian. Moreover, the TGI in the experiment on OVCAR-5 ovarian is 27.5 µM; with ACHN renal it was 6.37 µM.
`COc1ccc(C(=O)O[C@H]2[C@H](O[C@H]3[C@@H](O)COC(O[C@H]4C[C@H]5[C@@H]6CC=C7C[C@@H](O)CC[C@]7(C)[C@H]6CC[C@]5(C)[C@H]4[C@H](C)C(=O)CCC(C)C)[C@@H]3OC(C)=O)OC[C@@H](O)[C@@H]2O)c(C)c1` (stereo partly specified): the GI50 in the experiment on CAKI-1 renal was < 0.01 µM; in the experiment with SK-MEL-2 melanoma, < 0.01 µM; with MALME-3M melanoma, 0.0127 µM; in the experiment with BT-549 breast it was < 0.01 µM; with MDA-MB-231 breast it was 0.146 µM; with OVCAR-8 ovarian it was 20.1 µM. Besides, the GI50 was 0.103 µM with OVCAR-5 ovarian and 0.0312 µM in the experiment with ACHN renal. The TGI is 1.08 µM with CAKI-1 renal; 3.23 µM in the experiment on SK-MEL-2 melanoma; 11.6 µM in the experiment with MALME-3M melanoma; 10.7 µM in the experiment with BT-549 breast; 18.1 µM in the experiment on MDA-MB-231 breast; > 100 µM with OVCAR-8 ovarian. For the same compound, the TGI came to 26.9 µM in the experiment on OVCAR-5 ovarian and 38.9 µM in the experiment on ACHN renal.
Take `C(=Nc1cnc2ccccc2c1)c1ccc2ccccc2n1`: the TGI with CAKI-1 renal, in the experiment on SK-MEL-2 melanoma, in the experiment on MALME-3M melanoma, in the experiment on BT-549 breast, with MDA-MB-231 breast and with OVCAR-8 ovarian was > 100 µM each time. Besides, the TGI in the experiment with OVCAR-5 ovarian and in the experiment with ACHN renal was > 100 µM each time.
`N#Cc1ccccc1C#C/C=C\C#CC#C/C=C\C#Cc1ccccc1C#N`: the GI50 in the experiment with CAKI-1 renal is 20.1 µM; in the experiment on SK-MEL-2 melanoma it was 22.1 µM; with MALME-3M melanoma, 14.6 µM; in the experiment on BT-549 breast, 20.9 µM; with MDA-MB-231 breast, 8.76 µM; with OVCAR-8 ovarian, 47.6 µM. The GI50 with OVCAR-5 ovarian was 11.4 µM; in the experiment on ACHN renal, 7.39 µM. Moreover, the TGI in the experiment on CAKI-1 renal is 73.4 µM; in the experiment on SK-MEL-2 melanoma it was 62.7 µM; in the experiment on MALME-3M melanoma, 29.8 µM; in the experiment on BT-549 breast it was > 100 µM; in the experiment on MDA-MB-231 breast, 35.4 µM; in the experiment with OVCAR-8 ovarian it was > 100 µM. Also, the values for the TGI with OVCAR-5 ovarian and in the experiment on ACHN renal were 26.5 µM and 37.8 µM, respectively.
